This note sets out measurements from ChEMBL document CHEMBL1667753, “Synthesis of 2-(aminomethyl)aziridines and their microwave-assisted ring opening to 1,2,3-triaminopropanes as novel antimalarial pharmacophores” (Eur J Med Chem, 2011).

The structures appear in SMILES notation.

Data set [1] deals with Plasmodium falciparum. The experiment in a line: Antiplasmodial activity against chloroquine-sensitive Plasmodium falciparum D10 by parasite LDH assay. Type of data set: functional, organism-based.
Data set [2] deals with Plasmodium falciparum. Description: Antiplasmodial activity against chloroquine-resistant Plasmodium falciparum Dd2 by parasite LDH assay. Type of data set: functional, organism-based.
Another data set deals with CHO. The experiment in a line: Cytotoxicity against CHO cells by MTT assay. The settings on record: Cricetulus griseus. Type of data set: cell-based. (In general: Tetrazolium assays rely on reduction of a dye to a coloured formazan, in cell work by metabolically active cells.)
Data set [3] has as its system Plasmodium falciparum. Description: Resistance index, ratio of IC50 for chloroquine-resistant Plasmodium falciparum Dd2 to IC50 for chloroquine-sensitive Plasmodium falciparum D10. Type of data set: functional.
The nature of data set [4]: Selectivity index, ratio of IC50 for CHO cells to IC50 for chloroquine-sensitive Plasmodium falciparum D10. Type of data set: toxicity, cell-based. The conditions noted are these: hamster, read-out: Ratio IC50.

As to `CCN(CC)CC(CN(CC)CC)NCc1ccccc1`, the IC50 – broadly, the point on the concentration scale where inhibition reaches its midpoint – with Plasmodium falciparum [1] was 23.7 µM; in the data set with Plasmodium falciparum [2], 30.2 µM; in the data set with CHO, above 300 µM. The “Ratio IC50” value with Plasmodium falciparum [3] is 1.3.

As for `CCN(CC)CC(CN(CC)CC)NCc1ccc(Cl)cc1`, the IC50 in the data set with Plasmodium falciparum [1] turned out to be 8.41 µM; with Plasmodium falciparum [2] it was 19.8 µM; in the data set on CHO it was 76.4 µM. Also, the “Ratio IC50” value in the data set with Plasmodium falciparum [3] turned out to be 2.4. In addition, the selectivity ratio in data set [4] was 9.1.

Consider `CCN(CC)CC(CN(CC)CC)NCc1ccc(OC)cc1`, for which the IC50 in the data set on Plasmodium falciparum [1] was 6.66 µM; in the data set with Plasmodium falciparum [2], 13.5 µM; in the data set on CHO it was 170 µM. Besides, the “Ratio IC50” value in the data set with Plasmodium falciparum [3] is reported as 2. Also, the selectivity ratio in data set [4] was 24.2.

In the data set with Plasmodium falciparum [1], `Nc1ncnc2c1ncn2CC1CN1Cc1ccccc1` (racemic) returned an IC50 above 350 µM.

In the data set with Plasmodium falciparum [1], `Nc1ncnc2c1ncn2CC1CN1Cc1ccc(Cl)cc1` (racemic) came in with a concentration for half-maximal inhibition (IC50) above 300 µM.

Consider `COc1ccc(CN2CC2Cn2cnc3c(N)ncnc32)cc1` (racemic), for which the IC50 in the data set on Plasmodium falciparum [1] was 267 µM.

`Cc1cn(CC2CN2Cc2ccc(Cl)cc2)c(=O)[nH]c1=O` (racemic): the IC50 in the data set with Plasmodium falciparum [1] was determined as 138 µM.

`COc1ccc(CN2CC2Cn2cc(C)c(=O)[nH]c2=O)cc1` (racemic) returned an IC50 with Plasmodium falciparum [1] of 172 µM.

Take `c1ccc(CN2CC2Cn2cncn2)cc1` (racemic): the half-maximal inhibitory concentration (IC50) in the data set with Plasmodium falciparum [1] was determined as 80.7 µM.

The molecule `Clc1ccc(CN2CC2Cn2cncn2)cc1` (racemic) yielded an IC50 in the data set with Plasmodium falciparum [1] of 126 µM.

For `COc1ccc(CN2CC2Cn2cncn2)cc1` (racemic), the results for the IC50 in the data set with Plasmodium falciparum [1], with Plasmodium falciparum [2] and with CHO were 4.18 µM, 23.2 µM and above 400 µM, respectively. Further, the “Ratio IC50” value with Plasmodium falciparum [3] is on record as 5.6.

Consider `CCN(CC)CC1CN1Cc1ccccc1` (racemic), for which the IC50 in the data set on Plasmodium falciparum [1] was 15.2 µM; in the data set with Plasmodium falciparum [2], 48.3 µM; in the data set on CHO, 402 µM. Moreover, the “Ratio IC50” value in the data set with Plasmodium falciparum [3] amounted to 3.2. Also, the selectivity ratio in data set [4] worked out at 26.3.

Regarding `CCN(CC)CC1CN1Cc1ccc(Cl)cc1` (racemic), the IC50 in the data set on Plasmodium falciparum [1] turned out to be 6.49 µM; in the data set on Plasmodium falciparum [2] it was 23.7 µM; in the data set with CHO, 247 µM. Moreover, in the data set on Plasmodium falciparum [3], the “Ratio IC50” value was determined as 3.7. Moreover, the selectivity ratio in data set [4] stood at 38.1.

Take `CCN(CC)CC1CN1Cc1ccc(OC)cc1` (racemic): the results for the IC50 with Plasmodium falciparum [1], with Plasmodium falciparum [2] and in the data set on CHO were 8.54 µM, 18 µM and 193 µM, respectively. For the same molecule, in the data set with Plasmodium falciparum [3], the “Ratio IC50” value is given as 2.1. For the same molecule, the selectivity ratio in data set [4] worked out at 22.6.

Turning to `CCN(CC)CC(Cn1cnc2c(N)ncnc21)NCc1ccccc1` (racemic), the IC50 in the data set with Plasmodium falciparum [1] was determined as 214 µM.

The molecule `CCN(CC)CC(Cn1cnc2c(N)ncnc21)NCc1ccc(Cl)cc1` (racemic) showed an IC50 with Plasmodium falciparum [1] of 78.2 µM.

Molecule `CCN(CC)CC(Cn1cnc2c(N)ncnc21)NCc1ccc(OC)cc1` (racemic) returned an IC50 with Plasmodium falciparum [1] of 81.9 µM.

`CCN(CC)CC(Cn1cc(C)c(=O)[nH]c1=O)NCc1ccc(Cl)cc1` (racemic) yielded an IC50 in the data set with Plasmodium falciparum [1] of 71.7 µM.

In turn, `CCN(CC)CC(Cn1cc(C)c(=O)[nH]c1=O)NCc1ccc(OC)cc1` (racemic) gave an IC50 in the data set with Plasmodium falciparum [1] of 128 µM.

As to `CCN(CC)CC(Cn1cncn1)NCc1ccccc1` (racemic), the values for the IC50 with Plasmodium falciparum [1], in the data set on Plasmodium falciparum [2] and in the data set with CHO were 42.9 µM, 98.8 µM and above 300 µM, respectively. In the data set on Plasmodium falciparum [3], the “Ratio IC50” value turned out to be 2.3.

For `CCN(CC)CC(Cn1cncn1)NCc1ccc(Cl)cc1` (racemic), the values for the IC50 in the data set with Plasmodium falciparum [1], with Plasmodium falciparum [2] and with CHO were 6.52 µM, 13.1 µM and above 300 µM, respectively. Besides, the “Ratio IC50” value in the data set with Plasmodium falciparum [3] is listed as 2.

In the case of `CCN(CC)CC(Cn1cncn1)NCc1ccc(OC)cc1` (racemic), the IC50 with Plasmodium falciparum [1] worked out at 1.98 µM; in the data set with Plasmodium falciparum [2], 80.9 µM; in the data set with CHO, 159 µM. Moreover, the “Ratio IC50” value in the data set with Plasmodium falciparum [3] was 41.1.

`CC[C@H]1CN2CCc3cc(OC)c(OC)cc3[C@@H]2C[C@@H]1C[C@H]1NCCc2cc(OC)c(OC)cc21` [EMETINE] yielded an IC50 in the data set with CHO of 0.127 µM.
